From the supplement of paper PMC10627819

Legend:
S. aureus DSM 20231 [1] = test: fitness (endpoint OD595 vs no drug) (fraction); higher = more growth
Procedure, shortened: (§1)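 Growth medium was TSB, LB Lennox or CY, and plates were kept at 37 °C. Inoculation was at OD595 0.01 in 384-well plates, at 30 µl per well or 55 µl for S. pneumoniae. OD595 was monitored every 30 min for 14 h and background-subtracted using the first reading. Fitness is the optical density on entering stationary phase divided by the robust mean of no-drug controls, with values capped at 1.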

S. aureus Newman [2] = test: as above
Procedure, shortened: as §1

B. subtilis 168 [3] = test: as above
Procedure, shortened: as §1

S. aureus DSM 20231 [4] = test: Bliss interaction score (quartile over a dose matrix) (fitness difference); higher = more antagonism (negative = synergy)
Procedure, shortened: (§2)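 The Bliss score is observed minus expected fitness, where expected fitness is the product of the single-drug fitness values inferred from the combination data. Fitness is the OD595 at the onset of stationary phase over the plate's robust no-drug mean, capped at 1. Scores are summarised by quartiles over technical, biological and donor/recipient replicates.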

S. aureus Newman [5] = test: as above
Procedure, shortened: as §2

S. pneumoniae D39V = test: as above
Procedure, shortened: as §2

B. subtilis 168 [6] = test: as above
Procedure, shortened: as §2
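Throughout, for Bliss interaction score (quartile over a dose matrix): first quartile when negative (synergy) and third quartile when positive (antagonism).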
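Throughout, for fitness (endpoint OD595 vs no drug): OD595 on entry to stationary phase over no-drug wells; at most 1.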

CC[C@H]1OC(=O)[C@H](C)[C@@H](O[C@H]2C[C@@](C)(OC)[C@@H](O)[C@H](C)O2)[C@H](C)[C@@H](O[C@@H]2O[C@H](C)C[C@H](N(C)C)[C@H]2O)[C@](C)(O)C[C@@H](C)CN(C)[C@H](C)[C@@H](O)[C@]1(C)O [Azithromycin] + Cc1cc(NS(=O)(=O)c2ccc(N)cc2)no1 [Sulfamethoxazol]
fitness
Conditions | partner 1 µg/mL | partner 2 µg/mL | partner 4 µg/mL
B. subtilis 168 [3], first compound 0.25 µg/mL | 0.901 | 0.89 | 0.895
B. subtilis 168 [3], first compound 0.5 µg/mL | 0.871 | 0.834 | 0.849
S. aureus DSM 20231 [1], first compound 0.125 µg/mL | 0.911 | 0.85 | 0.913
S. aureus DSM 20231 [1], first compound 0.25 µg/mL | 0.85 | 0.839 | 0.869
S. aureus DSM 20231 [1], first compound 0.5 µg/mL | – | 0.545 | 0.516
S. aureus Newman [2], first compound 0.125 µg/mL | 0.849 | 0.88 | 0.86
S. aureus Newman [2], first compound 0.25 µg/mL | 0.85 | 0.869 | 0.837

one replicate
Conditions | fitness
B. subtilis 168 [3], first compound 0.5 µg/mL, partner 0.5 µg/mL | 0.899
B. subtilis 168 [3], first compound 1 µg/mL, partner 0.5 µg/mL | 0.788
B. subtilis 168 [3], first compound 2 µg/mL, partner 0.5 µg/mL | 0.029
B. subtilis 168 [3], first compound 2 µg/mL, partner 1 µg/mL | 0.105
B. subtilis 168 [3], first compound 2 µg/mL, partner 2 µg/mL | 0.126
S. aureus Newman [2], first compound 0.125 µg/mL, partner 8 µg/mL | 0.895
S. aureus Newman [2], first compound 0.25 µg/mL, partner 8 µg/mL | 0.873
S. aureus Newman [2], first compound 0.5 µg/mL, partner 8 µg/mL | 0.893

Conditions | Bliss interaction score
B. subtilis 168 [6] | 0.0534
S. aureus DSM 20231 [4] | -0.0683
S. aureus Newman [5] | -0.0991
S. pneumoniae D39V | 0.071

CC[C@H]1OC(=O)[C@H](C)[C@@H](O[C@H]2C[C@@](C)(OC)[C@@H](O)[C@H](C)O2)[C@H](C)[C@@H](O[C@@H]2O[C@H](C)C[C@H](N(C)C)[C@H]2O)[C@](C)(O)C[C@@H](C)CN(C)[C@H](C)[C@@H](O)[C@]1(C)O [Azithromycin] + Cc1ncc([N+](=O)[O-])n1CCO [Metronidazole]
fitness
Conditions | partner 0.625 µg/mL | partner 1.25 µg/mL | partner 2.5 µg/mL
B. subtilis 168 [3], first compound 0.25 µg/mL | 0.917 | 0.916 | 0.897
B. subtilis 168 [3], first compound 0.5 µg/mL | – | – | 0.878
S. aureus DSM 20231 [1], first compound 0.125 µg/mL | 0.932 | 0.993 | ≥ 1
S. aureus DSM 20231 [1], first compound 0.25 µg/mL | 0.928 | 0.982 | 0.949
S. aureus Newman [2], first compound 0.125 µg/mL | 0.896 | 0.915 | 0.947
S. aureus Newman [2], first compound 0.25 µg/mL | 0.831 | 0.906 | 0.823
S. aureus Newman [2], first compound 0.5 µg/mL | 0.73 | – | 0.67

fitness, S. aureus Newman [2], one replicate
Conditions | first compound 0.125 µg/mL | first compound 0.25 µg/mL | first compound 0.5 µg/mL
partner 0.781 µg/mL | 0.882 | 0.942 | 0.659
partner 1.562 µg/mL | 0.875 | 0.924 | 0.642
partner 3.124 µg/mL | 0.859 | 0.928 | 0.635

Conditions | Bliss interaction score
B. subtilis 168 [6] | 0.0931
S. aureus DSM 20231 [4] | 0.0787
S. aureus Newman [5] | -0.0641
S. pneumoniae D39V | 0.102

CC[C@H]1OC(=O)[C@H](C)[C@@H](O[C@H]2C[C@@](C)(OC)[C@@H](O)[C@H](C)O2)[C@H](C)[C@@H](O[C@@H]2O[C@H](C)C[C@H](N(C)C)[C@H]2O)[C@](C)(O)C[C@@H](C)CN(C)[C@H](C)[C@@H](O)[C@]1(C)O [Azithromycin] + Cc1onc(-c2ccccc2)c1C(=O)N[C@@H]1C(=O)N2[C@@H]1SC(C)(C)[C@@H]2C(=O)O [Oxacillin]
fitness
Conditions | first compound 0.125 µg/mL | first compound 0.25 µg/mL | first compound 0.5 µg/mL | first compound 1 µg/mL
B. subtilis 168 [3], partner 0.002 µg/mL | – | 0.881 | 0.87 | 0.535
B. subtilis 168 [3], partner 0.004 µg/mL | – | 0.851 | 0.818 | 0.503
B. subtilis 168 [3], partner 0.0078 µg/mL | – | ≥ 1 | 0.888 | –
B. subtilis 168 [3], partner 0.008 µg/mL | – | 0.824 | 0.842 | 0.453
B. subtilis 168 [3], partner 0.0155 µg/mL | – | 0.964 | 0.887 | –
B. subtilis 168 [3], partner 0.031 µg/mL | – | 0.983 | 0.908 | –
S. aureus DSM 20231 [1], partner 0.0156 µg/mL | 0.722 | 0.786 | – | –
S. aureus DSM 20231 [1], partner 0.0312 µg/mL | 0.617 | 0.62 | 0.183 | –
S. aureus DSM 20231 [1], partner 0.0625 µg/mL | 0.482 | 0.54 | 0.379 | –
S. aureus Newman [2], partner 0.0156 µg/mL | 0.723 | 0.726 | – | –
S. aureus Newman [2], partner 0.0312 µg/mL | 0.715 | 0.725 | 0.365 | –
S. aureus Newman [2], partner 0.0625 µg/mL | 0.624 | 0.622 | 0.31 | –

fitness, B. subtilis 168 [3], one replicate
Conditions | first compound 0.5 µg/mL | first compound 1 µg/mL | first compound 2 µg/mL
partner 0.075 µg/mL | 0.582 | 0.318 | 0.0267
partner 0.15 µg/mL | 0.037 | 0.0238 | 0.016
partner 0.3 µg/mL | 0.0266 | 0.0264 | 0.0201

Conditions | Bliss interaction score
B. subtilis 168 [6] | 0.0492
S. aureus DSM 20231 [4] | -0.0461
S. aureus Newman [5] | 0.0591
S. pneumoniae D39V | 0.0949

CC[C@H]1OC(=O)[C@H](C)[C@@H](O[C@H]2C[C@@](C)(OC)[C@@H](O)[C@H](C)O2)[C@H](C)[C@@H](O[C@@H]2O[C@H](C)C[C@H](N(C)C)[C@H]2O)[C@](C)(O)C[C@@H](C)CN(C)[C@H](C)[C@@H](O)[C@]1(C)O [Azithromycin] + O=C(O[C@@H]1Cc2c(O)cc(O)cc2O[C@@H]1c1cc(O)c(O)c(O)c1)c1cc(O)c(O)c(O)c1 [EGCG]
fitness
Conditions | partner 6.25 µg/mL | partner 12.5 µg/mL | partner 25 µg/mL | partner 50 µg/mL
B. subtilis 168 [3], first compound 0.25 µg/mL | 0.859 | 0.508 | 0.246 | –
B. subtilis 168 [3], first compound 0.5 µg/mL | 0.912 | 0.461 | – | –
B. subtilis 168 [3], first compound 1 µg/mL | – | – | 0.0462 | –
S. aureus DSM 20231 [1], first compound 0.125 µg/mL | – | 0.703 | 0.693 | 0.614
S. aureus DSM 20231 [1], first compound 0.25 µg/mL | – | 0.761 | 0.695 | –
S. aureus Newman [2], first compound 0.125 µg/mL | – | 0.759 | 0.706 | 0.696
S. aureus Newman [2], first compound 0.25 µg/mL | – | 0.726 | 0.715 | 0.658
S. aureus Newman [2], first compound 0.5 µg/mL | – | 0.545 | 0.522 | 0.484

B. subtilis 168 [3], first compound 2 µg/mL, one replicate
Conditions | fitness
partner 6.25 µg/mL | 0.387
partner 12.5 µg/mL | 0.229
partner 25 µg/mL | 0.201

Conditions | Bliss interaction score
B. subtilis 168 [6] | -0.0827
S. aureus DSM 20231 [4] | -0.13
S. aureus Newman [5] | -0.0553
S. pneumoniae D39V | 0.043
